Values joined by “and” are separate entries in the source; they are usually repeats but may differ in a detail not shown here. Equal values may be shown once. Inconclusive results and toxic doses are left out. No stated cut-off is given here; in the data, active means T/C of 150% or more; inactive means T/C below 125%.
Tested on: L1210 leukemia ip in BDF1 mice, survival T/C
Test: NCI In Vivo Anticancer Drug Screen. Data for tumor model L1210 Leukemia (intraperitoneal) in B6D2F1 (BDF1) mice
Settings: endpoint: mean survival time, higher = longer survival
In short: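 Antitumor effect is assessed in tumor-bearing animals. Survival in the compound arm is compared with a vehicle-dosed control arm and expressed as their quotient.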

[1] = dose: 100.0 mg/kg/injection, schedule: Q01DX009 (ip), vehicle: saline with Tween-80
[2] = dose: 100.0 mg/kg/injection, schedule: Q04DX002 (ip), vehicle: saline with Tween-80
[3] = dose: 200.0 mg/kg/injection, schedule: Q01DX009 (ip), vehicle: saline with Tween-80
[4] = dose: 200.0 mg/kg/injection, schedule: Q04DX002 (ip), vehicle: saline with Tween-80
[5] = dose: 400.0 mg/kg/injection, schedule: Q04DX002 (ip), vehicle: saline with Tween-80
[6] = dose: 100.0 mg/kg/injection, schedule: Q04DX003 (ip), vehicle: saline
[7] = dose: 100.0 mg/kg/injection, schedule: Q04DX003 (ip), vehicle: saline with Tween-80
[8] = dose: 200.0 mg/kg/injection, schedule: Q04DX003 (ip), vehicle: saline with Tween-80
[9] = dose: 400.0 mg/kg/injection, schedule: Q04DX003 (ip), vehicle: saline with Tween-80
[10] = dose: 50.0 mg/kg/injection, schedule: Q04DX003 (ip), vehicle: saline
[11] = dose: 50.0 mg/kg/injection, schedule: Q01DX009 (ip), vehicle: Klucel (hydroxypropylcellulose) (HPC)
[12] = dose: 200.0 mg/kg/injection, schedule: Q01DX009 (ip), vehicle: Klucel (hydroxypropylcellulose) (HPC)

Measured: T/C

Cc1cc(NC(=O)NCc2ccc(N3C(N)=NC(N)=NC3(C)C)cc2)ccc1S(=O)(=O)F
inactive: dose: 50.0 mg/kg/injection, schedule: Q01DX009 (ip), vehicle: saline 102 % of control | dose: 100.0 mg/kg/injection, schedule: Q01DX009 (ip), vehicle: saline 119 % of control | dose: 200.0 mg/kg/injection, schedule: Q01DX009 (ip), vehicle: saline 107 % of control | dose: 400.0 mg/kg/injection, schedule: Q01DX009 (ip), vehicle: saline 114 % of control

CC(C)(C)CC(C)(C)NCC(O)COc1ccc(C(C)(C)c2ccc(OCC(O)CNC(C)(C)CC(C)(C)C)cc2)cc1 (centres undefined)
inactive: dose: 3.13 mg/kg/injection, schedule: Q04DX003 (ip), vehicle: other 93 % of control | dose: 6.25 mg/kg/injection, schedule: Q01DX001 (ip), vehicle: saline sonified 97 % of control | dose: 6.25 mg/kg/injection, schedule: Q04DX003 (ip), vehicle: other 97 % of control | dose: 12.5 mg/kg/injection, schedule: Q01DX001 (ip), vehicle: saline sonified 96 % of control | dose: 12.5 mg/kg/injection, schedule: Q04DX003 (ip), vehicle: other 98 % of control | dose: 25.0 mg/kg/injection, schedule: Q04DX003 (ip), vehicle: other 93 % of control

NC(=S)c1ccc(Cl)cc1
inactive: [1] 95 % of control | [2] 101 % of control | [3] 110 % of control | [4] 97 % of control | [5] 97 % of control

COc1ccc(C(=O)C(Br)(Cc2ccccc2)OC)cc1 (centres undefined)
inactive: dose: 66.0 mg/kg/injection, schedule: Q04DX003 (ip), vehicle: saline 93 % of control | [6] 94 % of control | dose: 150.0 mg/kg/injection, schedule: Q04DX003 (ip), vehicle: saline 94 % of control

CCCCCC1(C)OCC(CCl)O1 (centres undefined)
inactive: dose: 222.0 mg/kg/injection, schedule: Q01DX Z (ip), vehicle: saline 107 % of control | dose: 333.0 mg/kg/injection, schedule: Q01DX Z (ip), vehicle: saline 97 % of control | dose: 500.0 mg/kg/injection, schedule: Q01DX Z (ip), vehicle: saline 89 % of control

CC(=O)CC(C)=NCC(C)N=C(C)CC(C)=O (centres undefined)
inactive: [1] 89 % of control | [7] 100 % of control | [3] 98 % of control | [8] 101 % of control | [9] 93 % of control

CCOC(=O)c1ccc(N2C(C#N)c3ccccc3OC2c2ccccc2O)cc1 (centres undefined)
inactive: dose: 100.0 mg/kg/injection, schedule: Q01DX001 (ip), vehicle: saline with Tween-80 91 % of control | [1] 93 % of control and 106 % of control | [2] 95 % of control and 92 % of control | [7] 90 % of control | dose: 200.0 mg/kg/injection, schedule: Q01DX001 (ip), vehicle: saline with Tween-80 88 % of control | [3] 94 % of control and 90 % of control | [4] 95 % of control and 97 % of control | [8] 97 % of control | dose: 400.0 mg/kg/injection, schedule: Q01DX001 (ip), vehicle: saline with Tween-80 88 % of control | dose: 400.0 mg/kg/injection, schedule: Q01DX009 (ip), vehicle: saline with Tween-80 94 % of control and 87 % of control | [5] 95 % of control and 100 % of control | [9] 89 % of control

c1ccc(N(c2ccccc2)N(c2ccccc2)c2ccccc2)cc1
inactive: dose: 12.5 mg/kg/injection, schedule: Q01DX009 (ip), vehicle: saline 90 % of control | [10] 89 % of control | dose: 100.0 mg/kg/injection, schedule: Q01DX001 (ip), vehicle: saline 88 % of control | dose: 200.0 mg/kg/injection, schedule: Q01DX001 (ip), vehicle: saline 88 % of control

CC(=O)OCc1ccc(/C=N/N2C(=O)CSC2=S)o1
inactive: dose: 75.0 mg/kg/injection, schedule: Q01DX001 (ip), vehicle: carboxymethylcellulose (CMC) 105 % of control | dose: 150.0 mg/kg/injection, schedule: Q01DX001 (ip), vehicle: carboxymethylcellulose (CMC) 100 % of control | dose: 300.0 mg/kg/injection, schedule: Q01DX001 (ip), vehicle: carboxymethylcellulose (CMC) 97 % of control

CCOC(=O)c1ccc(Nc2sc(C(=O)c3ccc(C)cc3C)c(N)c2C#N)cc1
inactive: dose: 100.0 mg/kg/injection, schedule: Q04DX002 (ip), vehicle: gum acacia 89 % of control | dose: 200.0 mg/kg/injection, schedule: Q04DX002 (ip), vehicle: gum acacia 92 % of control | dose: 400.0 mg/kg/injection, schedule: Q04DX002 (ip), vehicle: gum acacia 99 % of control

CC12CCCC(O)C1(O)CC(C(=O)O)CC2 (centres undefined)
inactive: dose: 50.0 mg/kg/injection, schedule: Q01DX009 (ip), vehicle: saline with Tween-80 100 % of control | [1] 96 % of control | [3] 96 % of control

Cc1cc(C(=O)O)c(C)n1-c1cccc(C(=O)O)c1
inactive: [11] 102 % of control | dose: 100.0 mg/kg/injection, schedule: Q01DX001 (ip), vehicle: Klucel (hydroxypropylcellulose) (HPC) 94 % of control | dose: 100.0 mg/kg/injection, schedule: Q01DX009 (ip), vehicle: Klucel (hydroxypropylcellulose) (HPC) 102 % of control | dose: 200.0 mg/kg/injection, schedule: Q01DX001 (ip), vehicle: Klucel (hydroxypropylcellulose) (HPC) 102 % of control | [12] 89 % of control | dose: 400.0 mg/kg/injection, schedule: Q01DX001 (ip), vehicle: Klucel (hydroxypropylcellulose) (HPC) 91 % of control

Cn1cnc([N+](=O)[O-])c1/N=C/c1ccccc1
inactive: dose: 50.0 mg/kg/injection, schedule: Q01DX005 (ip), vehicle: saline 98 % of control | dose: 100.0 mg/kg/injection, schedule: Q01DX005 (ip), vehicle: saline 100 % of control | dose: 200.0 mg/kg/injection, schedule: Q01DX005 (ip), vehicle: saline 104 % of control

COc1ccc(OC)c(/C=C/c2ccc(NC(=O)Nc3ccccc3Cl)cc2)c1
inactive: dose: 12.5 mg/kg/injection, schedule: Q01DX009 (ip), vehicle: Klucel (hydroxypropylcellulose) (HPC) 93 % of control | dose: 25.0 mg/kg/injection, schedule: Q01DX009 (ip), vehicle: Klucel (hydroxypropylcellulose) (HPC) 89 % of control | [11] 91 % of control | dose: 100.0 mg/kg/injection, schedule: Q04DX002 (ip), vehicle: Klucel (hydroxypropylcellulose) (HPC) 88 % of control | [12] 93 % of control and 86 % of control | dose: 200.0 mg/kg/injection, schedule: Q04DX002 (ip), vehicle: Klucel (hydroxypropylcellulose) (HPC) 88 % of control | dose: 300.0 mg/kg/injection, schedule: Q01DX009 (ip), vehicle: Klucel (hydroxypropylcellulose) (HPC) 106 % of control and 89 % of control

O=Nc1ccc(NO)c2ccccc12
inactive: dose: 12.5 mg/kg/injection, schedule: Q04DX003 (ip), vehicle: saline 108 % of control | dose: 25.0 mg/kg/injection, schedule: Q04DX003 (ip), vehicle: saline + alcohol 100 % of control | dose: 25.0 mg/kg/injection, schedule: Q04DX003 (ip), vehicle: saline 102 % of control | dose: 50.0 mg/kg/injection, schedule: Q04DX003 (ip), vehicle: saline + alcohol 100 % of control | [10] 100 % of control | dose: 100.0 mg/kg/injection, schedule: Q04DX003 (ip), vehicle: saline + alcohol 96 % of control | [6] 99 % of control

— PubChem BioAssay AID248 (DTP/NCI, 2004)
